Laboratory results from ChEMBL document CHEMBL5244233 (Eur J Med Chem, 2020).

Assays:
Cannabinoid receptor 1 = Cannabinoid receptor 1 (Rattus norvegicus, UniProt P20272); experiment: Displacement of [3H]HU243 from rat brain membrane CB1 receptor assessed as inhibition constant incubated for 90 mins; format: cell membranes
MDA-MB-231 = experiment: Inhibition of cell migration in human MDA-MB-231 cells measured upto 48 hrs by transwell chamber assay; format: functional
[1] = molecular target: Cannabinoid receptor 1 (Mus musculus) (UniProt P47746); experiment: Antagonist activity at mouse brain membrane CB1 receptor assessed as stimulation of [35S]-GTPgammaS binding by measuring apparent dissociation constant incubated for 60 mins by liquid scintillation counting method; format: cell membranes; conditions: filed as antagonist
Rattus norvegicus [2] = organism: Rattus norvegicus; experiment: Protection against LiCl-induced nausea in rat assessed as reduction in conditioned gaping; format: functional; conditions: read-out: MED
[3] = Reduction of triglyceride level in mouse 3T3-L1 cells incubated for 3 days by AdipoRed staining based fluorescence analysis; format: functional; conditions: 3T3-L1, 72 h, time 3 day, read-out: MEC
[4] = Induction of apoptosis in gamma-irradiation induced human U87 cells by PI staining based flow cytometric analysis; format: functional, U-87MG ATCC; conditions: U-87 MG, light or radiation study, read-out: MEC
DU-145 = experiment: Cytotoxicity against human DU-145 cells assessed as inhibition of cell growth incubated for 72 hrs by MTT assay; format: functional, cell-based; conditions: DU-145, 72 h
Caco-2 = experiment: Cytotoxicity against human Caco-2 cells assessed as reduction of cell viability incubated for 24 hrs by MTT assay; format: functional, cell-based; conditions: Caco-2, 24 h
4T1 = experiment: Cytotoxicity against mouse 4T1 cells assessed as inhibition of cell proliferation by MTT assay; format: functional, cell-based
Rattus norvegicus [5] = experiment: Protection against LiCl-induced nausea in ip dosed rat assessed as reduction in conditioned gaping; format: functional

Cannabinoid receptor 1 (Mus musculus), sequence (P47746 whole entry): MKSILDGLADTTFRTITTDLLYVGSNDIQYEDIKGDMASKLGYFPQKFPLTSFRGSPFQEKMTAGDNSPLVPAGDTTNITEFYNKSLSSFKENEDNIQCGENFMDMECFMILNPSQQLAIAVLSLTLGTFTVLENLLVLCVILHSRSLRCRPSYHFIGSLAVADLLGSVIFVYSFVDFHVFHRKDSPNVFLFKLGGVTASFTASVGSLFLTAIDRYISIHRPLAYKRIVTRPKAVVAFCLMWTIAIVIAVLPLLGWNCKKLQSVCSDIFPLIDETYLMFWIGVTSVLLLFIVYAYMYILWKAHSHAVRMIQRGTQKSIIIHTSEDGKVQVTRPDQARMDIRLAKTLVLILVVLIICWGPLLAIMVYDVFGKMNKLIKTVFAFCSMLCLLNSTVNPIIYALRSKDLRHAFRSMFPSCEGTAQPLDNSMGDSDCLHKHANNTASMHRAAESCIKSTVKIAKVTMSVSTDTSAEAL
Cannabinoid receptor 1, sequence (P20272 whole entry): as the sequence (P47746 whole entry) above, with D95E counted along it

Compound: C=C(C)[C@@H]1CCC(C)C[C@H]1c1c(O)cc(CCCCC)cc1O (stereo partly specified)
- Ki (Cannabinoid receptor 1): 0.145 µM

Compound: C=C(C)[C@@H]1CCC(C)=C[C@H]1c1c(O)cc(CCCCC)c(C(=O)O)c1O [CANNABIDIOLIC ACID]
- MIC (MDA-MB-231): ≤ 5 µM
- Kb [1]: 1.8 µM
- minimal effective dose (Rattus norvegicus [2]): 2.5 µg/kg

Compound: C=C(C)[C@@H]1CCC(C)=C[C@H]1c1c(O)cc(CCCCC)cc1O [CANNABIDIOL]
- minimal effective concentration [3]: ≤ 5 µM
- minimal effective concentration [4]: ≤ 5 µM
- IC50 (DU-145): 5.4 µM
- IC50 (Caco-2): 3.73 µM
- IC50 (4T1): 1.8 µM

Compound: C=C(C)[C@@H]1CCC(C)=C[C@H]1c1c(O)cc(CCC)cc1O [CANNABIDIVARIN]
- MED (Rattus norvegicus [5]): 200000 µg/kg
- IC50 (Caco-2): 10.1 µM
